# Experimental data: patent publication US20050255096A1, “Combination treatment for acute myocardial infarction” (priority 2002, published 2005)
# Tested on: patients with acute myocardial infarction
# Experiment: Effect of the combination on the mortality of the patients with acute myocardial infarction (180 day mortality)
# Assay type: in vivo
# Conditions: 6-hour infusion of levosimendan, bolus 6, 12 or 24 μg/kg then 0.1, 0.2 or 0.4 μg/kg/min
# Experimental: Effect of the combination on the mortality of the patients with acute myocardial infarction
# Patients who had suffered from acute myocardial infarction within five days received placebo or a 6-hour infusion of levosimendan using a bolus of 6, 12 or 24 μg/kg and subsequent infusion of 0.1, 0.2 or 0.4 μg/kg/min. Patients were divided according to whether they had received thrombolytic therapy or not. The 180 day mortality was measured. It can be seen that the combination provided synergistic reduction in the mortality of patients with acute myocardial infarction.
# [1] = patients who did not receive thrombolytic, N = 331
# [2] = patients who received thrombolytic, N = 70
smiles,measurement,setting,value
"CC1CC(=O)NN=C1c1ccc(NN=C(C#N)C#N)cc1 (single isomer, unassigned; (-)) [Levosimendan, (−)-enantiomer of [[4-(1,4,5,6-tetrahydro-4-methyl-6-oxo-3-pyridazinyl)phenyl]hydrazono]propanedinitrile]","180-day mortality, Event (%)",[1],24.8%
same,"180-day mortality, Event n",[1],82
same,"180-day mortality, Event (%)",[2],12.8%
same,"180-day mortality, Event n",[2],9
